Experimental data reported in patent publication US8735609B2, “Bryostatin analogues, synthetic methods and uses” (The Board of Trustees of the Leland Stanford Junior …, priority 2007, dated 2014).
Where two headings read alike, the source gives them in different places.

What was measured:
[1] = target: T1, PKCβI (PKC-GFP fusion protein) (Homo sapiens, UniProt P05771); test: PKC translocation assay, PKCβI; format: cell-based, Rat
T1 construct: expressed in transfected cells; host or cells: Rat basophilic leukemia 2H3 (RBL) cells
Experimental: (§1) Functional activity of analogs were addressed in a PKC translocation assay. […] This translocation can be observed and measured in real time with confocal microscopy using the fusion protein PKC-GFP (green fluorescent protein) as a reporter. Translocation assays were performed on the novel PKC isozymes δ and ε and on the conventional isozyme PKCβ1.
(§2) Rat basophilic leukemia 2H3 (RBL) cells were cultured in Dulbecco's Modified Eagle Medium (DMEM) (Invitrogen Life Technologies, Gibco) containing 20% fetal calf serum with 50 units/ml penicillin, […] and 4 mM glutamine (Gibco). Cells were maintained at 37° C. in an atmosphere of 10% CO2. Two hours prior to transfection, cells were plated onto sterile glass coverslips. […]
(§3) Fluorescence images were obtained using the 488 nm excitation line of a laser scanning confocal microscope (Pascal, Zeiss) and emission was collected through a 505-550 nm band pass filter. […]
(§4) Images were exported as 12 bit files and analyzed using Metamorph data analysis software (Universal Imaging). To monitor the translocation of PKCδ-GFP, a small region of interest was selected in the cytosol of each cell and fluorescence intensity values graphed against time following background subtraction and normalization. […]

[2] = target: PKC purified from the rat brain; test: PKC binding assay; conditions: for Ki: competitive inhibition of [3H]-PDBu binding, read-out: PKC Binding constant
Experimental: Filters (Whatman GF-B, 21 mm dia.) are soaked for 1 hour in a solution containing deionized water (97 mL), and 10% polyethyleneamine (3 mL). An assay buffer solution is prepared by the combining of TRIS (1M, pH 7.4, 1 mL), KCl (1M, 2 μL), CaCl2 (0.1M, 30 μL), bovine serum albumin (40 mg), and diluting to 20 mL with deionized water and stored on ice. Phosphatidyl serine vesicles are prepared by the addition of phosphatidyl serine (10 mg/mL in chloroform, 0.4 mL) to a glass test tube followed by removal of the chloroform under a stream of nitrogen (5 min). To this viscous liquid is added a portion of the prepared assay buffer (4 mL) and the resulting mixture is then transferred to a plastic tube. This tube is then sonicated (Branson Sonifier 250, power=6, 40% duty cycle) four times for 30 sec. with a 30 sec. rest in-between sonications. The resulting solution is stored over ice. PKC is prepared by the addition of cooled assay buffer (10 mL) to PKC (25 mL) purified from the rat brain by the method of Mochly-Rosen et al. (J. Biol. Chem. 1987, 262, 2291) and then stored on ice. Stock solutions of compounds are diluted with absolute ethanol in glass in serial fashion.
Each plastic assay incubation tube is made to contain prepared phosphatidyl serine vesicles (60 μL), prepared PKC solution (200 μL) and analog ([…] plus EtOH (20-0 μL) for a total volume of 20 μL). Lastly, tritiated phorbol dibutryate ([3H]-PDBu) (30 nM, 20 μL) is added to each tube. The assay is carried out using 7-10 analog concentrations, each in triplicate. Non-specific binding is measured in 1-3 tubes by the substitution of phorbol myristate acetate (PMA) (1 mM, 5 μL) and EtOH (15 μL) for the analog/EtOH combination. The tubes are incubated at 37° C. for 90 min. and then put on ice for 5 min. Each tube is then filtered separately through a pre-soaked filter disc. The filter is subsequently rinsed with cold 20 mM TRIS buffer (5 mL) dropwise. The filters are then put in separate scintillation vials and Universol® scintillation fluid is added (3 mL). The filters are immediately counted in a scintillation counter (Beckman LS 6000SC). Counts per minute are averaged among three trials at each concentration. The data is then plotted using a least square fit algorithm with the Macintosh version of Kaleidagraph® (Abelbeck Software) and an IC50 (defined as the concentration of analog required to displace half of the specific PDBu binding to PKC) is calculated. The IC50 then allows determination of the Ki for the analog from the equation: Ki=IC50/(1+[PDBu])/Kd of PDBu).

[3] = target: T2, PKCε (PKC-GFP fusion protein) (Homo sapiens, UniProt Q02156); test: PKC translocation assay, PKCε; format: cell-based, Rat; conditions: RBL cells, 200 nM, confocal microscopy
T2 construct: expressed in transfected cells; host or cells: Rat basophilic leukemia 2H3 (RBL) cells
Experimental: as §1, §2, §3, §4

[4] = target: T3, PKCδ-GFP fusion protein (Homo sapiens, UniProt Q05655); test: PKC translocation assay, PKCδ; format: cell-based, Rat; conditions: RBL cells, 200 nM, confocal microscopy
T3 construct: The DNA encoding C-terminal GFP-tagged full-length PKCδ was electroporated into the cells; expressed in transfected cells; host or cells: Rat basophilic leukemia 2H3 (RBL) cells
Experimental: as §1, §2, §3, §4

[5] = system: P388 cell line; test: P388 murine lymphocytic leukemia cell assay; format: cell-based; conditions: Mus musculus, P388, 120 h, read-out: P388 Assay ED50
Experimental: Cells from a P388 cell line (CellGate, Inc., Sunnyvale, Calif.) are grown in RPMI 1640 cell medium containing fetal calf serum (10%), L-glutamine, penicillin, streptomycin and are split twice weekly. All compounds are first diluted with DMSO. Later serial dilutions are done with a phosphate buffer solution (HYQ DPBS modified phosphate buffered saline). All dilutions are done in glass vials and the final DMSO concentration is always below 0.5% by volume. Final two-fold dilutions are done in a 96 well plate using cell media so that each well contains 50 μL. All compounds are assayed in quadruplicate over 12 concentrations. Cell concentration is measured using a hemacytometer and the final cell concentration is adjusted to 1×10^4 cells/mL with cell medium. The resulting solution of cells (50 μL) is then added to each well and the plates are incubated for 5 days in a 37° C., 5% CO2, humidified incubator (Sanyo CO2 incubator). MTT solution (3-[4,5-dimethylthiazol-2-yl]-2,5-diphenyltetrazolium bromide, 10 μL) is then added to each well and the plates are re-incubated under identical conditions for 2 h. To each well is then added acidified isopropanol (150 μL of i-PrOH solution containing 0.05 N HCl) and mixed thoroughly. The plates are then scanned at 595 nm and the absorbances are read (Wallac Victor 1420 Multilabel Counter). The resulting data is then analyzed to determine an ED50 value using the Prism software package (GraphPad).

[6] = target: T4, PKCδ-C1B (Mus musculus, UniProt P28867); test: PKCδ-C1B assay; format: binding
T4 construct: made in house
Experimental: Phosphatidyl serine vesicles are prepared by the addition of phosphatidyl serine (10 mg/mL in chloroform, 0.4 mL) to a glass test tube followed by removal of the chloroform under a stream of nitrogen (5 min). […] The resulting solution is stored over ice. […] Stock solutions of compounds are diluted with absolute ethanol in glass in serial fashion. […] The tubes are incubated at 37° C. for 90 min. and then put on ice for 5 min. Each tube is then filtered separately through a pre-soaked filter disc. […] The filter is subsequently rinsed with cold 20 mM TRIS buffer (5 mL) dropwise. […] The filters are immediately counted in a scintillation counter (Beckman LS 6000SC). Counts per minute are averaged among three trials at each concentration.

[7] = target: PKC purified from rat brain; test: Protein kinase C (isozyme mix) assay; format: binding; conditions: 37° C., 90 min, read-out: Kd of [H^3]-PDBu
Experimental: In one approach, anticancer activity of compounds of the invention can be assessed using the protein kinase C assay detailed in Example 5. In this assay, Ki values are determined for analogues based on competition with radiolabeled phorbol 12,13-dibutyrate for binding to a mixture of PKC isoenzymes. PKC enzymes are implicated in a variety of cellular responses which may be involved in the activity of the bryostatins.
The following procedure was used, based on a modification of a previous procedure described by Tanaka et al. (1986). Filters (Whatman GF-B, 21 mm diam.) are soaked for 1 h in a solution containing deionized water (97 mL), and 10% polyethyleneamine (3 mL). A filtering buffer solution containing TRIS (1M, pH 7.4, 10 mL) and water (490 mL) is prepared and cooled on ice. […] Non-specific binding is measured in 1-3 tubes by the substitution of phorbol myristate acetate (PMA) (1 mM, 5 μL) and EtOH (15 μL) for the analogue/EtOH combination. […] The filters are immediately counted in a scintillation counter (Beckman LS 6000SC). […] The data is then plotted using a least squares fit algorithm with the Macintosh version of Kaleidagraph© (Abelbeck Software) and an IC50 (defined as the concentration of analogue required to displace half of the specific PDBU binding to PKC) is calculated. […]

T1 sequence (P05771 whole entry, the tested form may be a part): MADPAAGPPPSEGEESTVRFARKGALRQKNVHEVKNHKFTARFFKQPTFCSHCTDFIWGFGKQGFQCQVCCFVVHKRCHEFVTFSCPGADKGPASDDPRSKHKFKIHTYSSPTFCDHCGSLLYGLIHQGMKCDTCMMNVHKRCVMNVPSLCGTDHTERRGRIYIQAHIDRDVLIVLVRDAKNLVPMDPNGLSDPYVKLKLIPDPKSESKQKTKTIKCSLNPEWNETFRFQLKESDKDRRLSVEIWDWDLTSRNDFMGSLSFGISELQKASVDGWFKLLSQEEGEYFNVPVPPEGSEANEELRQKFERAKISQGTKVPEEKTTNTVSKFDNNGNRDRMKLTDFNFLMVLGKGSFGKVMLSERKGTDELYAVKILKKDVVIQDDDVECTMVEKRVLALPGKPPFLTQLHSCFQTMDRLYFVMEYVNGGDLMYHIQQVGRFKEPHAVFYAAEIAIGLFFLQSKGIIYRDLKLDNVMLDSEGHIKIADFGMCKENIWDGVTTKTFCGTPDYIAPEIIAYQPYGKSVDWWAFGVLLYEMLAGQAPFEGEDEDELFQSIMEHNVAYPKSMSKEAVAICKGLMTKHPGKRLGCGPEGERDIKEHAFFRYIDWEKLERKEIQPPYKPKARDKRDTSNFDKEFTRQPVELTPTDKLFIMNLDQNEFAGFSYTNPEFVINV
T4 sequence (P28867 231-281 limits assumed): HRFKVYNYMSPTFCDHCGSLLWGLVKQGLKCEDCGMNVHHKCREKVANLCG
T3 sequence (Q05655 whole entry, the tested form may be a part): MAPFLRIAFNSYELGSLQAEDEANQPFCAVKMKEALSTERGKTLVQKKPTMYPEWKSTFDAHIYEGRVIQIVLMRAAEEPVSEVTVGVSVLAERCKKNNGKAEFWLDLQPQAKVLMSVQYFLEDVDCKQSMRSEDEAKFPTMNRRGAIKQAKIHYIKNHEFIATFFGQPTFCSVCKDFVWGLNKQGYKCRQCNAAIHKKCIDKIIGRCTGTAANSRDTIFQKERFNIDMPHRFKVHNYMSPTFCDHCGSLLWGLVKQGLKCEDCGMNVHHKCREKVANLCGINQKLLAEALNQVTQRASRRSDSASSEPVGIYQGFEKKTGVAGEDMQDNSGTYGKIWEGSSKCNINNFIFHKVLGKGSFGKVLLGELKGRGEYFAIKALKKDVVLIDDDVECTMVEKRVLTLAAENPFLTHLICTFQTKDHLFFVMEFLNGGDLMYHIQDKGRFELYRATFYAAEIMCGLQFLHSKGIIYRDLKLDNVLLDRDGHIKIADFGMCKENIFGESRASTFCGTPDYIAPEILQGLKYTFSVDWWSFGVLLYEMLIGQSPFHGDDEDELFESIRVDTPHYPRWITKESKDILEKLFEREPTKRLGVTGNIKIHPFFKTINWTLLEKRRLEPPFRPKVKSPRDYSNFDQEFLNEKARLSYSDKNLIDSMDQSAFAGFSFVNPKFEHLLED
T2 sequence (Q02156 whole entry, the tested form may be a part): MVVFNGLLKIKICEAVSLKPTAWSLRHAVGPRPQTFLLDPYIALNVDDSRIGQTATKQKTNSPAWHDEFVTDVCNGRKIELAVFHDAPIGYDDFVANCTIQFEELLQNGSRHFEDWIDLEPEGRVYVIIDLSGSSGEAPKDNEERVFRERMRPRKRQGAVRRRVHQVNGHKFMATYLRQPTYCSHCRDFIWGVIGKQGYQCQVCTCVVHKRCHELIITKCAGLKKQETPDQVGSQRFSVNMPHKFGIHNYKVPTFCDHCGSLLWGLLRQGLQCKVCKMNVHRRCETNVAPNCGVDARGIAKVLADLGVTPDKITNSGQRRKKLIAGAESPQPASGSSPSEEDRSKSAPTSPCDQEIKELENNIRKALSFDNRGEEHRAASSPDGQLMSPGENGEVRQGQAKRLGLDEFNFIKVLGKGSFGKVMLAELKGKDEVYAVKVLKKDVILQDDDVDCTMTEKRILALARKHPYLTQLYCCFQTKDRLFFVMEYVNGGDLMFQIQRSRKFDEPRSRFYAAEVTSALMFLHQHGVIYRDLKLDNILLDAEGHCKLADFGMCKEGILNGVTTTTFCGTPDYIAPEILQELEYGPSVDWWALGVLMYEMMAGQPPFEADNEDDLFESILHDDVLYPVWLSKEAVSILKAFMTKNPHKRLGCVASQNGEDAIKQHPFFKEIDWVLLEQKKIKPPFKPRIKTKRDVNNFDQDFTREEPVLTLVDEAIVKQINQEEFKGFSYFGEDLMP

**Q.** Which “ability to translocate PKCβI relative to bryostatin 1” value [1] does the source give for `CCCCCCCC(=O)OC1C(=CC(=O)OC)CC2CC(CO)OC(=O)CC(O)CC3CCCC(CC4COC(C=CC(C)(C)C1(O)O2)O4)O3` (stereo not shown) [Formula 18B.1] here?
**A.** The value was “significantly reduced ability to translocate”.

**Q.** What about the “translocation of PKCβI from the cytosol to cellular membranes” value ([1]; RBL cells, 200 nM, confocal microscopy) of the same compound?
**A.** Its value is “reduced”.

**Q.** What about the Ki [2] of the same compound?
**A.** Its Ki is 5.4 nM.

**Q.** And the “translocation of PKCε from the cytosol to cellular membranes” value [3]?
**A.** Its value is “rapid and complete”.

**Q.** What about the “translocation of PKCδ from the cytosol to cellular membranes” value [4] of the same compound?
**A.** The value was “rapid and complete”.

**Q.** How did the Ki [2] turn out when `C=CCC1C[C@H]2CCOCC[C@@H](O)CC(=O)O[C@@H](CO)C[C@@H]3C/C(=C\C(=O)OC)[C@H](OC(=O)CCCCCCC)[C@@](O)(O3)C(C)(C)/C=C/[C@@H](O1)O2` (stereo partly shown) [Formula 20A] was run?
**A.** The Ki was 2.6 nM.

**Q.** Which Ki [2] does the source give for `C=CCC1C[C@H]2C[C@H]3CCC[C@@H](C[C@@H](O)CC(=O)O[C@@H](CO)C[C@@H]4C/C(=C\C(=O)OC)[C@H](OC(=O)CCCCCCC)[C@@](O)(O4)C(C)(C)/C=C/[C@@H](O1)O2)O3` (stereo partly shown) [Formula 22A] here?
**A.** Its Ki is 0.67 nM.

**Q.** Which EC50 ([5]; 5 days incubation, MTT) does the source give for `COC(=O)/C=C1\C[C@H]2C[C@H]([C@@H](C)O)OC(=O)C[C@H](O)C[C@@H]3CCC[C@H](C[C@@H]4CCO[C@H](/C=C/C(C)(C)[C@](O)(O2)[C@H]1OC(C)=O)O4)O3` [Formula 702.2] here?
**A.** Its EC50 is 181 nM.

**Q.** Which results are given for `CCCCCCC(=O)O[C@H]1/C(=C/C(=O)OC)C[C@H]2C[C@H]([C@@H](C)O)OC(=O)C[C@H](O)C[C@@H]3CCC[C@H](C[C@@H]4CCO[C@H](/C=C/C(C)(C)[C@]1(O)O2)O4)O3` [Formula 702.3]?
**A.** Ki [6]: 35 nM; EC50 [5]: 38 nM

**Q.** How did the Kd ([6]; Kd value) turn out when `CCCC(=O)O[C@@H]1[C@@H](C)[C@@]2(O)[C@@H](C=C(CO)C[C@]3(O)C(=O)C(C)=C[C@@H]23)[C@@H]2C(C)(C)[C@]12OC(=O)CCC` [Phorbol dibutyrate, phorbol 12,13-dibutyrate, reference compound] was run?
**A.** Its Kd is 1.7 nM.

**Q.** Which Kd ([2]; read-out: PKC Binding constant (Kd of [3H]-PDBu)) does the source give for `CCCC(=O)O[C@@H]1[C@@H](C)[C@@]2(O)[C@@H](C=C(CO)C[C@]3(O)C(=O)C(C)=C[C@@H]23)[C@@H]2C(C)(C)[C@]12OC(=O)CCC` [[3H]—PDBu, tritiated phorbol 12,13-dibutyrate, reference compound] here?
**A.** Its Kd is 1.17 nM.

**Q.** And the Kd [7]?
**A.** The Kd was 1.55 nM.
